Experimental data as given in patent publication US8263617B2, “Chromen-2-one derivatives and their use as monoamine neurotransmitter re-uptake inhibitors” (Neurosearch A/S, priority 2006, dated 2012).
Structures can show the parent of a compound that is named as a salt.

Assays:
Assay type in all cases: biochemical
[1] = target: T1, reuptake of noradrenaline (NA) in synaptosomes (Rattus norvegicus, UniProt Q63380); test: Inhibition of NA reuptake in synaptosomes; conditions: 3H-NA, read-out: NA-uptake IC50
T1 construct: in synaptosomes as described in WO 97/16451; from tissue
T1 sequence (Q63380 1-617): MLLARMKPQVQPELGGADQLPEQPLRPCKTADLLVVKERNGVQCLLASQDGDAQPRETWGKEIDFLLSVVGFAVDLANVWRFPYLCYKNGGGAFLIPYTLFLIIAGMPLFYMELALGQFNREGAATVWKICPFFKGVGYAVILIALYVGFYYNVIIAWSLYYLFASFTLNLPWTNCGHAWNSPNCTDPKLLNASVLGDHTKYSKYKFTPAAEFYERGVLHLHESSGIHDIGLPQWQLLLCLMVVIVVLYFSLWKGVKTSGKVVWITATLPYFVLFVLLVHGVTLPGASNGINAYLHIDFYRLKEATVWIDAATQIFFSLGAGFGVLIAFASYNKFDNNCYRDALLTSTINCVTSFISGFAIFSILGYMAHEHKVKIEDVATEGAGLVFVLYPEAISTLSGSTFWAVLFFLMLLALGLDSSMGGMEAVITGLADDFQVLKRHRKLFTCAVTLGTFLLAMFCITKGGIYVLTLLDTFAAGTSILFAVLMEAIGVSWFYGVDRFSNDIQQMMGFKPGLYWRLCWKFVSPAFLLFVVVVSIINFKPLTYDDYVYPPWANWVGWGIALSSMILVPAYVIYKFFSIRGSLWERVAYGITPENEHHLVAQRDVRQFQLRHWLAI
Method: (§1) A number of compounds were tested for their ability to inhibit the reuptake of the monoamine neurotransmitters dopamine (DA), noradrenaline (NA) and serotonine (5-HT) in synaptosomes as described in WO 97/16451.
(§2) The test values are given as IC50 (the concentration (μM) of the test substance which inhibits the specific binding of ^3H-DA, ^3H-NA, or ^3H-5-HT by 50%).

[2] = target: T2, reuptake of dopamine (DA) in synaptosomes (Rattus norvegicus, UniProt P23977); test: Inhibition of DA reuptake in synaptosomes; conditions: 3H-DA, read-out: DA-uptake IC50
T2 construct: in synaptosomes as described in WO 97/16451; from tissue
T2 sequence (P23977 whole entry): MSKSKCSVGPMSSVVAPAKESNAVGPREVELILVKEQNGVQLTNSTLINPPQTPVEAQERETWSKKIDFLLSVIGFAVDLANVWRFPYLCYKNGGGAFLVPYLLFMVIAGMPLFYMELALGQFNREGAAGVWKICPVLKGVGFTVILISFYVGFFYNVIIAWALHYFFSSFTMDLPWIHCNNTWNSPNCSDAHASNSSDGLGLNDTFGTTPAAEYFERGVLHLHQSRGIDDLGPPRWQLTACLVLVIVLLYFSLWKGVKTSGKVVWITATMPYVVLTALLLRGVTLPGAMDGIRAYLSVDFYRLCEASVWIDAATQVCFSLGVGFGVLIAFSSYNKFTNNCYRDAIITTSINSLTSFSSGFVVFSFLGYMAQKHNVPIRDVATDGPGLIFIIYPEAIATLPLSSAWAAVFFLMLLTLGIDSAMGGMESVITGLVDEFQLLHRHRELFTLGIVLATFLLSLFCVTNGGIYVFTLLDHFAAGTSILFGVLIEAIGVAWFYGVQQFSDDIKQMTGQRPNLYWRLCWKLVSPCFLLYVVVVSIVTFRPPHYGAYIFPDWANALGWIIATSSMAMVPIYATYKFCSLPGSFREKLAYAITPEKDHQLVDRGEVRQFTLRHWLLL
Method: as §1, §2

[3] = target: T3, reuptake of serotonine (5-HT) in synaptosomes (Rattus norvegicus, UniProt P31652); test: Inhibition of 5-HT reuptake in synaptosomes; conditions: 3H-5-HT, read-out: 5-HT-uptake IC50
T3 construct: in synaptosomes as described in WO 97/16451; from tissue
T3 sequence (P31652 whole entry): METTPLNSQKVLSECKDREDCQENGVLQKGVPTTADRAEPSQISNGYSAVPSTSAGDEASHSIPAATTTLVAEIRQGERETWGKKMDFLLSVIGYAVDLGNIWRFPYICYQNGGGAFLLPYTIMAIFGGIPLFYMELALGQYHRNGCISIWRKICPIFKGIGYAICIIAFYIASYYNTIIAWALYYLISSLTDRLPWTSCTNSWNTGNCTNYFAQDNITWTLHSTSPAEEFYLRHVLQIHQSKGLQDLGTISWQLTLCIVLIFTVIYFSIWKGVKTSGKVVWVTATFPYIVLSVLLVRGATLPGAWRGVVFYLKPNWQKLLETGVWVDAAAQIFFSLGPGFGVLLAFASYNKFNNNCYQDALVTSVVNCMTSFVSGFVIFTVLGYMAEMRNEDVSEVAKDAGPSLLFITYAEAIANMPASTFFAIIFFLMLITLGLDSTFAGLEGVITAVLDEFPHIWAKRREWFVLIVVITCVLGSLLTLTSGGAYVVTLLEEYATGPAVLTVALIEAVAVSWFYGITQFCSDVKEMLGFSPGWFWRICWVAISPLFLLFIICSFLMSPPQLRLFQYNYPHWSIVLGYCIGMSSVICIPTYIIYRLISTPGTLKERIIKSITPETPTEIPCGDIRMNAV
Method: as §1, §2

Compound: O=c1oc2cc(OC3CC4CCC(C3)N4)ccc2cc1-c1ccoc1 [2nd Compound of Method A, exo-7-[(1S,3S,5R)-(8-Aza-bicyclo[3.2.1]oct-3-yl)oxy]-3-furan-3-yl-chromen-2-one hydrochloric acid salt]
- IC50 [1]: 0.48 nM
- IC50 [2]: 9.9 nM
- IC50 [3]: 10 nM

Compound: O=c1oc2cc(OC3CC4CCC(C3)N4)ccc2cc1-c1ccco1 [1st Compound of Method A, exo-7-[(1S,3S,5R)-(8-Aza-bicyclo[3.2.1]oct-3-yl)oxy]-3-furan-2-yl-chromen-2-one hydrochloric acid salt]
- IC50 [1]: 4.3 nM
- IC50 [2]: 34 nM
- IC50 [3]: 7.7 nM

Compound: O=c1oc2cc(OC3CC4CCC(C3)N4)ccc2cc1-c1cc2ccccc2o1 [3rd Compound of Method A, exo-7-[(1S,3S,5R)-(8-Aza-bicyclo[3.2.1]oct-3-yl)oxy]-3-benzofuran-2-yl-chromen-2-one hydrochloric acid salt]
- IC50 [1]: 840 nM
- IC50 [2]: 700 nM
- IC50 [3]: 9.1 nM
